From patent publication US9107926B2, “Mutant selectivity and combinations of a phosphoinositide 3-kinase inhibitor compound and chemotherapeutic agents for the treatment of cancer” (Genentech, Inc., priority 2012, dated 2015)

Tests used:
Experiment in all cases: CellTiter-Glo cell proliferation assay
Type in all cases: cell-based
HT-29 = settings: Homo sapiens, Colon, K-RAS
SW1783 = settings: Homo sapiens, Glioma, PTEN
MDA-MB-453 = settings: Homo sapiens, Breast, Kinase-HET.1047H > R, HET.350D > N
BT549 = settings: Homo sapiens, BT-549, Breast, PTEN
ZR75-30 = settings: Homo sapiens, ZR-75-30, Breast, WT
HCC1954 = settings: Homo sapiens, Breast, Kinase-HOM.1047H > L
Description: (§1) Cell Culture Medium: RPMI or DMEM high glucose, 10% Fetal Bovine Serum, 2 mM L-Glutamine, P/S. Incubate O/N (overnight) at 37° C., 5% CO2.
(§2) Drug Addition to Cells, Cell Plate (1:10 dilution): Add 6 μl of media+compound directly to cells (54 μl of media on the cells already). Incubate 3 days at 37° C., 5% CO2 in an incubator that will not be opened often.
(§3) Day 5—Develop Plates, Thaw Cell Titer Glo Buffer at room temperature: Remove Cell Plates from 37° C. and equilibrate to room temperature for about 30 minutes. Add Cell Titer-Glo® Buffer to Cell Titer-Glo® Substrate (bottle to bottle). Add 30 μl Cell Titer-Glo® Reagent (Promega cat.#G7572) to each well of cells. Place on plate shaker for about 30 minutes. Read luminescence on Analyst HT Plate Reader (half second per well).

H1568 = settings: NCI-H1568, Lung(NSCLC), WT
CAL-148 = settings: Homo sapiens, Breast, Kinase(HET.1047H > R)/-PTEN
Description: as §1, §2, §3

SKBR3 = settings: Homo sapiens, SK-BR-3, Breast, HER2 Amplified
Description: as §1, §2, §3

Cc1nc(-c2cn3c(n2)-c2ccc(-c4cnn(C(C)(C)C(N)=O)c4)cc2OCC3)n(C(C)C)n1 [GDC-0032, 2-(4-(2-(1-isopropyl-3-methyl-1H-1,2,4-triazol-5-yl)-5,6-dihydrobenzo[f]imidazo[1,2-d][1,4]oxazepin-9-yl)-1H-pyrazol-1-yl)-2-methylpropanamide]
EC50 (HT-29): 75 nM
EC50 (SW1783): 3110 nM
EC50 (MDA-MB-453): 44 nM
EC50 (BT549): 1200 nM
EC50 (ZR75-30): 21 nM
EC50 (HCC1954): 102 nM
EC50 (H1568): 10000 nM
EC50 (CAL-148): 375 nM
EC50 (SKBR3): 43 nM
